Results taken from the NIST ThermoML archive (doi:10.1016/j.jct.2018.12.019).

Tests used:
[1] = xn = mol fraction of the nth substance listed; conditions: 98 kPa, Liquid; for speed of sound: Frequency=3 MHz, Single path-length method; for mass density: Vibrating tube method
[2] = excess molar enthalpy (molar enthalpy of mixing); xn = mol fraction of the nth substance listed; conditions: 298.15 K, 98 kPa, Liquid, Calvet calorimetry

Cn1ccnc1 [1-methylimidazole] + CC(C)O
[1]
Conditions | mass density, 288.15 K [kg/m3] | mass density, 298.15 K [kg/m3] | mass density, 308.15 K [kg/m3] | mass density, 318.15 K [kg/m3] | mass density, 328.15 K [kg/m3] | speed of sound, 288.15 K [m/s] | speed of sound, 298.15 K [m/s] | speed of sound, 308.15 K [m/s] | speed of sound, 318.15 K [m/s] | speed of sound, 328.15 K [m/s]
x1 = 0.0508 | 803.32 | 794.92 | 786.26 | 777.31 | 767.99 | 1199.2 | 1164 | 1128.7 | 1093.2 | 1057.4
x1 = 0.1043 | 817.79 | 809.32 | 800.63 | 791.7 | 782.45 | 1224.9 | 1189.6 | 1154.6 | 1118.7 | 1083
x1 = 0.2003 | 843.18 | 834.63 | 825.91 | 817 | 807.86 | 1268.9 | 1233.4 | 1197.9 | 1162.5 | 1127.2
x1 = 0.3007 | 869.37 | 860.76 | 852.02 | 843.13 | 834.07 | 1313.8 | 1278.4 | 1242.9 | 1207.7 | 1172.6
x1 = 0.405 | 896.25 | 887.59 | 878.83 | 869.96 | 860.95 | 1360.7 | 1325.3 | 1289.7 | 1254.5 | 1219.5
x1 = 0.5046 | 921.64 | 912.93 | 904.15 | 895.28 | 886.27 | 1406.8 | 1371.1 | 1335.5 | 1300.1 | 1265
x1 = 0.6006 | 945.55 | 936.79 | 927.97 | 919.09 | 910.11 | 1451.7 | 1415.7 | 1379.6 | 1344 | 1308.6
x1 = 0.7034 | 970.8 | 962 | 953.15 | 944.24 | 935.27 | 1500.7 | 1464.1 | 1427.7 | 1391.6 | 1355.8
x1 = 0.8029 | 994.49 | 985.66 | 976.78 | 967.86 | 958.89 | 1547.2 | 1510.2 | 1473.3 | 1436.7 | 1400.5
x1 = 0.9031 | 1017.75 | 1008.9 | 1000.03 | 991.11 | 982.15 | 1592.8 | 1555.5 | 1518.1 | 1481.2 | 1444.6
x1 = 0.9536 | 1029.16 | 1020.32 | 1011.45 | 1002.55 | 993.6 | 1614.9 | 1577.5 | 1540 | 1502.9 | 1466.2
x1 = 1 | 1039.36 | 1030.52 | 1021.66 | 1012.76 | 1003.83 | 1634.1 | 1596.5 | 1559 | 1521.8 | 1485

[2]
Conditions | excess molar enthalpy [kJ/mol]
x1 = 0.0518 | -0.047
x1 = 0.1082 | -0.127
x1 = 0.1974 | -0.214
x1 = 0.2924 | -0.307
x1 = 0.3342 | -0.332
x1 = 0.3969 | -0.355
x1 = 0.4954 | -0.376
x1 = 0.5926 | -0.354
x1 = 0.7041 | -0.301
x1 = 0.798 | -0.217
x1 = 0.8831 | -0.123
x1 = 0.9538 | -0.06
x1 = 1 | 0

Cn1ccnc1 [1-methylimidazole] + CCCO
[1]
Conditions | mass density, 288.15 K [kg/m3] | mass density, 298.15 K [kg/m3] | mass density, 308.15 K [kg/m3] | mass density, 318.15 K [kg/m3] | mass density, 328.15 K [kg/m3] | speed of sound, 288.15 K [m/s] | speed of sound, 298.15 K [m/s] | speed of sound, 308.15 K [m/s] | speed of sound, 318.15 K [m/s] | speed of sound, 328.15 K [m/s]
x1 = 0.0507 | 820.94 | 812.86 | 804.67 | 796.32 | 787.79 | 1261.9 | 1227.2 | 1192.8 | 1158.7 | 1124.9
x1 = 0.1042 | 834.73 | 826.55 | 818.26 | 809.85 | 801.26 | 1284.5 | 1249.6 | 1214.9 | 1180.6 | 1146.6
x1 = 0.2018 | 859.55 | 851.23 | 842.82 | 834.3 | 825.64 | 1324.6 | 1289.5 | 1254.5 | 1219.9 | 1185.7
x1 = 0.301 | 884.11 | 875.67 | 867.16 | 858.56 | 849.84 | 1364.2 | 1329 | 1293.8 | 1259 | 1224.5
x1 = 0.4047 | 909.21 | 900.68 | 892.08 | 883.41 | 874.64 | 1405.6 | 1370.1 | 1334.7 | 1299.7 | 1265
x1 = 0.5076 | 933.32 | 924.7 | 916.03 | 907.3 | 898.5 | 1446.2 | 1410.4 | 1374.6 | 1339.2 | 1304.2
x1 = 0.6006 | 954.58 | 945.89 | 937.17 | 928.39 | 919.55 | 1483.1 | 1447 | 1410.8 | 1375.1 | 1339.7
x1 = 0.7029 | 977.37 | 968.62 | 959.84 | 951.01 | 942.13 | 1523.8 | 1487.2 | 1450.6 | 1414.4 | 1378.5
x1 = 0.8027 | 999.22 | 990.42 | 981.59 | 972.72 | 963.81 | 1564.5 | 1527.3 | 1490.2 | 1453.5 | 1417.2
x1 = 0.903 | 1020.12 | 1011.3 | 1002.44 | 993.55 | 984.62 | 1602 | 1564.6 | 1527.1 | 1490.1 | 1453.4
x1 = 0.9532 | 1030.34 | 1021.51 | 1012.64 | 1003.74 | 994.81 | 1620.1 | 1582.6 | 1545.1 | 1507.9 | 1471.1
x1 = 1 | 1039.36 | 1030.52 | 1021.66 | 1012.76 | 1003.83 | 1634.1 | 1596.5 | 1559 | 1521.8 | 1485

[2]
Conditions | excess molar enthalpy [kJ/mol]
x1 = 0.05 | -0.134
x1 = 0.101 | -0.261
x1 = 0.193 | -0.469
x1 = 0.2923 | -0.63
x1 = 0.3845 | -0.747
x1 = 0.4985 | -0.788
x1 = 0.5962 | -0.747
x1 = 0.7004 | -0.615
x1 = 0.8026 | -0.443
x1 = 0.8897 | -0.236
x1 = 0.9463 | -0.13
x1 = 1 | 0

Cn1ccnc1 [1-methylimidazole] + CCO
[1]
Conditions | mass density, 288.15 K [kg/m3] | mass density, 298.15 K [kg/m3] | mass density, 308.15 K [kg/m3] | mass density, 318.15 K [kg/m3] | mass density, 328.15 K [kg/m3] | speed of sound, 288.15 K [m/s] | speed of sound, 298.15 K [m/s] | speed of sound, 308.15 K [m/s] | speed of sound, 318.15 K [m/s] | speed of sound, 328.15 K [m/s]
x1 = 0.0511 | 812.59 | 803.97 | 795.24 | 786.37 | 777.3 | 1210.6 | 1176.2 | 1141.9 | 1108 | 1074.3
x1 = 0.1012 | 829.84 | 821.16 | 812.37 | 803.49 | 794.35 | 1240.8 | 1206.2 | 1171.7 | 1137.5 | 1103.7
x1 = 0.2006 | 861.64 | 852.87 | 844 | 835.02 | 825.9 | 1296.9 | 1261.9 | 1227 | 1192.5 | 1158.3
x1 = 0.3012 | 891.28 | 882.45 | 873.53 | 864.53 | 855.41 | 1350 | 1314.7 | 1279.5 | 1244.6 | 1210.1
x1 = 0.3955 | 916.81 | 907.94 | 899 | 889.99 | 880.88 | 1396.8 | 1361.2 | 1325.7 | 1290.5 | 1255.7
x1 = 0.5 | 942.71 | 933.82 | 924.87 | 915.86 | 906.77 | 1445.7 | 1409.8 | 1373.8 | 1338.3 | 1303
x1 = 0.5994 | 965.25 | 956.36 | 947.41 | 938.4 | 929.34 | 1489.5 | 1453 | 1416.7 | 1380.7 | 1345.1
x1 = 0.7066 | 987.5 | 978.61 | 969.67 | 960.68 | 951.65 | 1533 | 1496.1 | 1459.3 | 1423 | 1386.9
x1 = 0.8063 | 1006.58 | 997.7 | 988.78 | 979.82 | 970.81 | 1570.7 | 1533.5 | 1496.3 | 1459.6 | 1423.3
x1 = 0.902 | 1023.35 | 1014.49 | 1005.59 | 996.65 | 987.68 | 1603.2 | 1565.8 | 1528.4 | 1491.4 | 1454.8
x1 = 0.9505 | 1031.47 | 1022.63 | 1013.75 | 1004.83 | 995.88 | 1619 | 1581.5 | 1544 | 1507 | 1470.2
x1 = 1 | 1039.36 | 1030.52 | 1021.66 | 1012.76 | 1003.83 | 1634.1 | 1596.5 | 1559 | 1521.8 | 1485

[2]
Conditions | excess molar enthalpy [kJ/mol]
x1 = 0.0523 | -0.188
x1 = 0.1012 | -0.357
x1 = 0.2013 | -0.629
x1 = 0.3057 | -0.811
x1 = 0.4037 | -0.963
x1 = 0.5087 | -0.998
x1 = 0.5987 | -0.831
x1 = 0.7146 | -0.636
x1 = 0.8003 | -0.438
x1 = 0.8861 | -0.259
x1 = 0.9463 | -0.144
x1 = 1 | 0
